Experiments:
[1] = tested on: SNU-5; assay: OncoPanel cell proliferation assay, SNU-5; assay type: cell-based, human; conditions: SNU-5
Method: (§1) Cells were seeded into 384-well plates and incubated in a humidified atmosphere of 5% CO2 at 37° C. Compounds were added the day following cell seeding. At the same time, a time zero untreated cell plate was generated. After a 3-day incubation period, cells were fixed and stained to allow fluorescence imaging of nuclei. Compounds (1 mM stock solutions) were serially diluted in half-log steps from the highest test concentration ([…]), and assayed over 10 concentrations with a maximum assay concentration of 0.1% DMSO. Automated fluorescence microscopy was carried out using a Molecular Devices ImageXpress Micro XL high-content imager, and images were collected with a 4× objective. 16-bit TIFF images were acquired and analyzed with MetaXpress 5.1.0.41 software.
(§2) Cell proliferation was measured by the fluorescence intensity of an incorporated nuclear dye. The output is referred to as the relative cell count, where the measured nuclear intensity is transformed to percent of control (POC) using the following formula: […]
(§3) Cellular response parameters were calculated using nonlinear regression to a sigmoidal single-site dose response model:
(§4) Where y is a response measured at concentration x, A and B are the lower and upper limits of the response, C is the concentration at the response midpoint (EC50), and D is the Hill Slope (Ref. 1).
(§5) GI50 is the concentration needed to reduce the observed growth by half (midway between the curve maximum and the time zero value). […] In rare instances, values <0 or >10 may be observed. […] Curve-fitting, calculations, and report generation was performed using a custom data reduction engine and MathIQ based software (AIM).

[2] = tested on: ST486; assay: OncoPanel cell proliferation assay, ST486; assay type: cell-based, human; conditions: for Relative cell count (%) Mean: ST486
Method: as §1, with “Cells were grown in RPMI 1640, 10% FBS, 2 mM L-alanyl-L-glutamine, 1 mM Na pyruvate, or a special medium. Cells” for “Cells”
as §2, §3, §4
(§6) EC50 is the test compound concentration at the curve inflection point or half the effective response (parameter C of the fitted curve solution). GI50 is the concentration needed to reduce the observed growth by half (midway between the curve maximum and the time zero value). “Cell Count Activity Area” is an estimate of the integrated area above the curve (Barretina, et al. The Cancer Cell Line Encyclopedia enables predictive modelling of anticancer drug sensitivity. Nature 483: 603-607). […] In rare instances, values <0 or >10 may be observed. […] Curve-fitting, calculations, and report generation was performed using a custom data reduction engine and MathIQ based software (AIM).

[3] = tested on: SW579; assay: OncoPanel cell proliferation assay, SW579; assay type: cell-based, human; conditions: for Relative cell count (%) Mean: SW579
Method: as §1, with “Cells were grown in RPMI 1640, 10% FBS, 2 mM L-alanyl-L-glutamine, 1 mM Na pyruvate, or a special medium. Cells” for “Cells”
as §2, §3, §4, §6

[4] = tested on: U2OS; assay: OncoPanel cell proliferation assay, U2OS; assay type: cell-based, human
Method: as §1, §2, §3, §4, §5

[5] = tested on: CAMA-1; assay: OncoPanel cell proliferation assay, CAMA-1; conditions: for Relative cell count (%) Mean: CAMA-1
Method: (§7) Cells were seeded into 384-well plates and incubated in a humidified atmosphere of 5% CO2 at 37° C. Compounds were added the day following cell seeding. At the same time, a time zero untreated cell plate was generated. After a 3-day incubation period, cells were fixed and stained to allow fluorescence imaging of nuclei. Compounds (1 mM stock solutions) were serially diluted in half-log steps from the highest test concentration (1 micromol), and assayed over 10 concentrations with a maximum assay concentration of 0.1% DMSO. Automated fluorescence microscopy was carried out using a Molecular Devices ImageXpress Micro XL high-content imager, and images were collected with a 4× objective. 16-bit TIFF images were acquired and analyzed with MetaXpress 5.1.0.41 software.

[6] = tested on: CHP-212; assay: OncoPanel cell proliferation assay, CHP-212; conditions: for Relative cell count (%) Mean: CHP-212
Method: as §7

[7] = tested on: SK-NEP-1; assay: OncoPanel cell proliferation assay, SK-NEP-1; conditions: for Relative cell count (%) Mean: SK-NEP-1
Method: as §7

CO[C@H]1C[C@@H]2CC[C@@H](C)[C@@](O)(O2)C(=O)C(=O)N2CCCC[C@H]2C(=O)O[C@H]([C@H](C)C[C@@H]2C[C@@H]3C[C@H]2C[C@H]3O)CC(=O)[C@H](C)/C=C(\C)[C@@H](O)[C@@H](OC)C(=O)[C@H](C)C[C@H](C)/C=C/C=C/C=C/1C [Formula I, 37R-hydroxynorbornylrapamycin]
Relative cell count (%) Mean ([1]; 3.18E−04 microM): 91.2%
Relative cell count (%) Mean ([1]; 3.18E−05 microM): 96.3%
EC50 ([2]; Homo sapiens, 72 h, ST486, 3-day incubation, read-out: Cell Count EC50): 0.128 nM
GI50 ([2]; Homo sapiens, 72 h, ST486, 3-day incubation, read-out: Cell Count GI50): 0.226 nM
IC50 ([2]; Homo sapiens, 72 h, ST486, 3-day incubation, read-out: Cell Count IC50): > 1000 nM
Cell Count Activity Area ([2]; ST486, scale 0-10): 3.70
Relative cell count (%) Mean ([2]; 1.00E+00 microM): 50.5%
Relative cell count (%) Mean ([2]; 1.00E−01 microM): 58.5%
Relative cell count (%) Mean ([2]; 1.00E−02 microM): 56.8%
Relative cell count (%) Mean ([2]; 1.00E−03 microM): 61.1%
Relative cell count (%) Mean ([2]; 1.01E−04 microM): 81.6%
Relative cell count (%) Mean ([2]; 3.16E−01 microM): 51.1%
Relative cell count (%) Mean ([2]; 3.17E−02 microM): 54.8%
Relative cell count (%) Mean ([2]; 3.17E−03 microM): 56.0%
Relative cell count (%) Mean ([2]; 3.18E−04 microM): 63.3%
Relative cell count (%) Mean ([2]; 3.18E−05 microM): 90.7%
EC50 ([3]; Homo sapiens, 72 h, SW579, 3-day incubation, read-out: Cell Count EC50): 0.0616 nM
GI50 ([3]; Homo sapiens, 72 h, SW579, 3-day incubation, read-out: Cell Count GI50): 0.152 nM
IC50 ([3]; Homo sapiens, 72 h, SW579, 3-day incubation, read-out: Cell Count IC50): 0.367 nM
Cell Count Activity Area ([3]; SW579, scale 0-10): 5.31
Relative cell count (%) Mean ([3]; 1.00E+00 microM): 35.3%
Relative cell count (%) Mean ([3]; 1.00E−01 microM): 35.8%
Relative cell count (%) Mean ([3]; 1.00E−02 microM): 42.8%
Relative cell count (%) Mean ([3]; 1.00E−03 microM): 44.2%
Relative cell count (%) Mean ([3]; 1.01E−04 microM): 63.2%
Relative cell count (%) Mean ([3]; 3.16E−01 microM): 37.9%
Relative cell count (%) Mean ([3]; 3.17E−02 microM): 38.4%
Relative cell count (%) Mean ([3]; 3.17E−03 microM): 44.6%
Relative cell count (%) Mean ([3]; 3.18E−04 microM): 48.4%
Relative cell count (%) Mean ([3]; 3.18E−05 microM): 78.0%
Relative cell count (%) Mean ([4]; 1.00E+00 microM): 50.8%
Relative cell count (%) Mean ([4]; 1.00E−01 microM): 48.5%
Relative cell count (%) Mean ([4]; 1.00E−02 microM): 51.4%
Relative cell count (%) Mean ([4]; 1.00E−03 microM): 69.9%
Relative cell count (%) Mean ([4]; 1.01E−04 microM): 86.1%
Relative cell count (%) Mean ([4]; 3.16E−01 microM): 43.2%
Relative cell count (%) Mean ([4]; 3.17E−02 microM): 47.8%
Relative cell count (%) Mean ([4]; 3.17E−03 microM): 62.6%
Relative cell count (%) Mean ([4]; 3.18E−04 microM): 75.4%
Relative cell count (%) Mean ([4]; 3.18E−05 microM): 95.3%
EC50 ([4]; Homo sapiens, 72 h, 3-day incubation, read-out: Cell Count EC50): 0.395 nM
GI50 ([4]; Homo sapiens, 72 h, 3-day incubation, read-out: Cell Count GI50): 2.76 nM
IC50 ([4]; Homo sapiens, 72 h, 3-day incubation, read-out: Cell Count IC50): 12.1 nM
Cell Count Activity Area ([4]; scale 0-10): 4.05
Cell Count Activity Area ([5]; CAMA-1, scale 0-10): 4.42
Relative cell count (%) Mean ([5]; 1.00E+00 microM): 44.1%
Relative cell count (%) Mean ([5]; 1.00E−01 microM): 45.8%
Relative cell count (%) Mean ([5]; 1.00E−02 microM): 51.2%
Relative cell count (%) Mean ([5]; 1.00E−03 microM): 53.9%
Relative cell count (%) Mean ([5]; 1.01E−04 microM): 86.0%
Relative cell count (%) Mean ([5]; 3.16E−01 microM): 46.2%
Relative cell count (%) Mean ([5]; 3.17E−02 microM): 48.8%
Relative cell count (%) Mean ([5]; 3.17E−03 microM): 50.2%
Relative cell count (%) Mean ([5]; 3.18E−04 microM): 66.1%
Relative cell count (%) Mean ([5]; 3.18E−05 microM): 97.5%
EC50 ([5]; Homo sapiens, CAMA-1, 72 h, read-out: Cell Count EC50): 0.174 nM
GI50 ([5]; Homo sapiens, CAMA-1, 72 h, read-out: Cell Count GI50): 0.239 nM
IC50 ([5]; Homo sapiens, CAMA-1, 72 h, read-out: Cell Count IC50): 1.28 nM
Cell Count Activity Area ([6]; CHP-212, scale 0-10): 3.70
Relative cell count (%) Mean ([6]; 1.00E−01 microM): 49.6%
Relative cell count (%) Mean ([6]; 1.00E−02 microM): 52.8%
Relative cell count (%) Mean ([6]; 1.00E−03 microM): 56.6%
Relative cell count (%) Mean ([6]; 1.01E−04 microM): 70.6%
Relative cell count (%) Mean ([6]; 3.16E−01 microM): 45.9%
Relative cell count (%) Mean ([6]; 3.17E−02 microM): 49.0%
Relative cell count (%) Mean ([6]; 3.17E−03 microM): 55.3%
Relative cell count (%) Mean ([6]; 3.18E−04 microM): 63.3%
Relative cell count (%) Mean ([6]; 3.18E−05 microM): 86.7%
EC50 ([6]; Homo sapiens, CHP-212, 72 h, read-out: Cell Count EC50): 0.0918 nM
GI50 ([6]; Homo sapiens, CHP-212, 72 h, read-out: Cell Count GI50): 0.125 nM
IC50 ([6]; Homo sapiens, CHP-212, 72 h, read-out: Cell Count IC50): 19.3 nM
EC50 ([7]; Homo sapiens, SK-NEP-1, 72 h, read-out: Cell Count EC50): 0.706 nM
GI50 ([7]; Homo sapiens, SK-NEP-1, 72 h, read-out: Cell Count GI50): 0.747 nM
IC50 ([7]; Homo sapiens, SK-NEP-1, 72 h, read-out: Cell Count IC50): 2.42 nM
Cell Count Activity Area ([7]; SK-NEP-1, scale 0-10): 4.35
Relative cell count (%) Mean ([7]; 1.00E+00 microM): 35.6%
Relative cell count (%) Mean ([7]; 1.00E−01 microM): 38.6%
Relative cell count (%) Mean ([7]; 1.00E−02 microM): 45.3%
Relative cell count (%) Mean ([7]; 1.00E−03 microM): 63.5%
Relative cell count (%) Mean ([7]; 1.01E−04 microM): 100.0%
Relative cell count (%) Mean ([7]; 3.16E−01 microM): 35.6%
Relative cell count (%) Mean ([7]; 3.17E−02 microM): 40.0%
Relative cell count (%) Mean ([7]; 3.17E−03 microM): 48.8%
Relative cell count (%) Mean ([7]; 3.18E−04 microM): 83.9%
Relative cell count (%) Mean ([7]; 3.18E−05 microM): 99.4%

From patent publication US20210024542A1 (Torcept Therapeutics, Inc., priority 2018, published 2021)
